Measurements reported in patent US4451475A, “Cyclic sulphenamide compounds, their production and their medicinal use” (Bayer Aktiengesellschaft, priority 1981, dated 1984).

Tests used:
[1] = test system: lipoxygenase; cyclooxygenase; settings: in words; one statement for all four named inhibitors; cited from earlier work
leucocytes = assay: Inhibition of the migration of leucocytes after local administration by a sponge soaked in active compound under the dorsal skin of rats; type: in vivo; settings: 10 mg/rat
Description: The sulphenamides according to the present invention are also active in vivo. […] The following Table 2 summarises the activities of some illustrative sulphenamides after local administration, by introduction of a piece of sponge soaked in the active compound under the dorsal skin of rats.

platelet lipoxygenase = biological target: T1, platelet lipoxygenase (Homo sapiens, UniProt P18054); assay: Inhibition of the platelet lipoxygenase (synthesis of HETE), metabolism of radioactively labelled arachidonic acid by washed human platelets; type: cell-based; settings: in vitro
T1 construct: metabolism of radioactively labelled arachidonic acid by washed human platelets; endogenous in cells; host or cells: washed human platelets
T1 sequence (P18054 1-663): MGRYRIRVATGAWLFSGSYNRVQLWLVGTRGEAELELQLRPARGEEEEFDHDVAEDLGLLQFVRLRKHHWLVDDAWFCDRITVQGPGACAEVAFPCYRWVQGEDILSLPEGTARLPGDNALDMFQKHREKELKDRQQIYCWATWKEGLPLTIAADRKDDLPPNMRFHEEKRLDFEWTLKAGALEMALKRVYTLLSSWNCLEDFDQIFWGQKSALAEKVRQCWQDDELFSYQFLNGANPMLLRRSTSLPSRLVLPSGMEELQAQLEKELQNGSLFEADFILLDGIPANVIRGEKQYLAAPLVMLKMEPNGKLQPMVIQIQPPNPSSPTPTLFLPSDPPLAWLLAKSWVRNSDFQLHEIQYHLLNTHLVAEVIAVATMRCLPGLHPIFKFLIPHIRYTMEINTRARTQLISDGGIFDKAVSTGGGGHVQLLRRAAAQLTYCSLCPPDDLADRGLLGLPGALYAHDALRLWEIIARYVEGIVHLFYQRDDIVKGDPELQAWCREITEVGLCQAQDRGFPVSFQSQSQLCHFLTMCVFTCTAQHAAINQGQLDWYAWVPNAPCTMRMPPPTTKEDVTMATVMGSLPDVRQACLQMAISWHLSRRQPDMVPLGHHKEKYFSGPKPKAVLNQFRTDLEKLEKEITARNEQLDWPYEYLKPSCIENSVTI
Procedure: Use is made in this test method of the metabolism of radioactively labelled arachidonic acid by washed human platelets. In this in vitro test, the radioactively labelled metabolites are extracted from the reaction mixture and separated by thin layer chromatography. The autoradiogram is evaluated on a thin layer scanner. Under these test conditions, the labelled metabolites are separated from the unreacted arachidonic acid and are subsequently quantitatively evaluated. The distribution of the radioactivity in the cyclooxygenase products, formed during metabolism, thromboxane B2 (TXB2) and 12-hydroxy-5,8,10-heptadecatrienoic acid (HHT) and the lipoxygenase product 12-hydroxy-5,8,11,14-eicosatetraenoic acid (HETE), as influenced by the inhibitors, gives a measure of the inhibition of the enzymes.
The inhibition of lipoxygenase by the sulphenamides according to the invention can be measured by the inhibition of the synthesis of HETE.

| Structure (SMILES) | Selectivity/potency of known inhibitors of lipoxygenase [1] | Inhibition of the migration of leucocytes (control = 0%) (leucocytes) [%] | Minimum effective inhibitory concentration (at least 50% inhibition), inhibition of the platelet lipoxygenase (synthesis of HETE) (platelet lipoxygenase) |
| --- | --- | --- | --- |
| CCCCCC=CCC=CCC=CCC=CCCCC(=O)O [5,8,11,14-eicosatetraenoic acid] | either simultaneously inhibitors of cyclooxygenase or only active at very high concentrations |  |  |
| O=C1OCCN1Sc1ccccc1 [Example 2, 3-phenylthio-oxazolidin-2-one] |  | 55 | 10^-6 g/ml |
| O=C1OCCN1Sc1ccc(Cl)cc1 [Example 4, 3-(4-chlorophenylthio)-oxazolidin-2-one] |  | 80 | 10^-7 g/ml |
| CC(C)(C)c1ccc(SN2CCOC2=O)cc1 [Example 5, 3-(4-tert.-butylphenylthio)-oxazolidin-2-one] |  | 72 |  |
| O=c1scc(-c2ccccc2)n1Sc1ccc(Cl)cc1 [Example 10, 3-(4-chlorophenylthio)-4-phenylthiazolin-2-one] |  | 53 |  |
| CC(Cc1ccc(O)c(O)c1)C(C)Cc1ccc(O)c(O)c1 (stereo not drawn) [nordihydroguaiaretic acid] | either simultaneously inhibitors of cyclooxygenase or only active at very high concentrations |  |  |
| O=C1CCN(c2ccccc2)N1 [phenidone] | either simultaneously inhibitors of cyclooxygenase or only active at very high concentrations |  |  |
